Measurements from US20220288038A1, “ABCC11 INHIBITOR” (THE UNIVERSITY OF TOKYO, priority 2019, published 2022).
Entries after “also recorded” stand apart in the source; their conditions may differ.

What was measured:
human ABCC11 = molecular target: T1, human ABCC11 (Homo sapiens, UniProt Q96J66); assay: in vitro DHEAS vesicle transport assay with ABCC11-expressing plasma membrane vesicles; format: biochemical; conditions: ATP-dependent transport of 100 nM [3H]-DHEAS into ABCC11-expressing 293A plasma membrane vesicles, 5 min, 37° C., febuxostat at indicated concentrations
T1 construct: The complete human ABCC11 cDNA; expressed in transfected cells; host or cells: 293A cells (HEK293-derived), adenovirus-infected; plasma membrane vesicles prepared from them
T1 sequence (Q96J66 whole entry): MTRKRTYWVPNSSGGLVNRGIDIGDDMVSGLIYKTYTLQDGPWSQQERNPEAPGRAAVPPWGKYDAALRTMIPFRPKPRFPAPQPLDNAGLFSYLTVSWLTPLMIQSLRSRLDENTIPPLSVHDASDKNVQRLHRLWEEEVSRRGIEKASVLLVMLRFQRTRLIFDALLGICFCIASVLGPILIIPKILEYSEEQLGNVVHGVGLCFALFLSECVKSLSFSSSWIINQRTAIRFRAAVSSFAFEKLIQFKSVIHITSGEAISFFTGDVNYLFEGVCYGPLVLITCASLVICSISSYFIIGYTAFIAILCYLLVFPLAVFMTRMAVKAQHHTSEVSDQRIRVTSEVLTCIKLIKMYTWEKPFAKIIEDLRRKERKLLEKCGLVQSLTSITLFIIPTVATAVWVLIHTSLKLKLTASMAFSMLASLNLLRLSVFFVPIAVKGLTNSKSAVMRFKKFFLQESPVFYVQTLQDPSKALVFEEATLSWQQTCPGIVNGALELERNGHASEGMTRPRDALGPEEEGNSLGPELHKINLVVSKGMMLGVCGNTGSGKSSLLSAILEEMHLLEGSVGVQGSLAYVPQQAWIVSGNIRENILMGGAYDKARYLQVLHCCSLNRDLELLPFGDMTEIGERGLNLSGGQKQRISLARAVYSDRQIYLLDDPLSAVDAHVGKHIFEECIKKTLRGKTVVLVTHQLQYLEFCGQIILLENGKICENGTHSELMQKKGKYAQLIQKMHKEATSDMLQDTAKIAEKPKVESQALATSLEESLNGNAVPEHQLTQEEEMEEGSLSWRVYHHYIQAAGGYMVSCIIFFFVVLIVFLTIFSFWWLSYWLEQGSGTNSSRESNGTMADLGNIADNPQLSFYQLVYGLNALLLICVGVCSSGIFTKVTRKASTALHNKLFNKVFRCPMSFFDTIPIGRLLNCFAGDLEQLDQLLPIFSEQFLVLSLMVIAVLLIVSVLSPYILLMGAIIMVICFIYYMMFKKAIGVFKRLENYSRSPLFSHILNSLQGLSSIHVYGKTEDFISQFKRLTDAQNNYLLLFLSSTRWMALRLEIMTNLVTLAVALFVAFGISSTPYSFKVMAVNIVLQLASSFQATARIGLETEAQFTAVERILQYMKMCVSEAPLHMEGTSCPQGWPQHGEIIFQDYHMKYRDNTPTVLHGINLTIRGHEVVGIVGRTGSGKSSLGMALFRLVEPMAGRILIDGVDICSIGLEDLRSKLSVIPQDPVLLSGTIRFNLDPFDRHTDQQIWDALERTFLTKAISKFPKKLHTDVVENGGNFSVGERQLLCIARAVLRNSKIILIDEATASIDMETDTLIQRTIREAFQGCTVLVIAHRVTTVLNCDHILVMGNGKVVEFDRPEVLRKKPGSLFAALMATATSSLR
Description: (§1) Using an in vitro transport system with ABCC11-expresssing plasma. membrane vesicles (FIG. 1A), we investigated the effect of the test compound on ABCC11 function. To confirm the experimental system, we first examined the time-dependent increase in ATP-dependent dehydroepiandrosterone sulfate (DHEAS)—an ABCC11 substrate (Chen et al., 2005)—transport into the ABCC11-expressing plasma membrane vesicles (FIG. 1B).
(§2) Critical materials and resources used in this study were summarized in Supplementary Table S1. […]
Membrane vesicles were prepared from 293A cells infected with the ABCC11-expressing or EGFP-expressing (control) adenovirus as described previously (Toyoda et al., 2017). […] Protein concentration of the plasma membrane vesicles was quantified using a BCA Protein Assay Kit (Pierce, Rockford, Ill., USA) with bovine serum albumin (BSA) as a standard according to the manufacturer's protocol.
Experiments to study the in vitro transport of [1,2,6,7-^3H(N)]-dehydroepiandrosterone sulfate (DHEAS) (Perkin-Elmer Japan, Tokyo, Japan), an ABCC11 substrate (Chen et al., 2005), into ABCC11-expressing and control vesicles were performed by using a rapid filtration technique (Toyoda et al., 2017; Toyoda et al., 2019) with a minor modification. […] Then, the radioactivity derived from the incorporated DHEAS was measured. […]

[1] = molecular target: T2, human ABCC11 WT (NCBI accession NM_033151) (Homo sapiens, UniProt Q96J66); assay: Inhibition of ABCC11-mediated ATP-dependent [3H]-DHEAS transport into ABCC11-expressing plasma membrane vesicles (vesicle transport assay, rapid filtration); format: biochemical
T2 construct: made in house; host or cells: plasma membrane vesicles from HEK293-derived 293A cells infected with ABCC11-expressing recombinant adenovirus
T2 sequence (Q96J66 whole entry): as above
Description: as §1, §2
FIG. 1. […] The DHEAS transport into membrane vesicles was measured at the indicated periods with or without ATP; the ATP-dependent DHEAS transport was calculated by subtracting the DHEAS transport activity in the absence of ATP from that in the presence of ATP. Data are expressed as the mean±SD. n=3. […] The DHEAS transport activities were measured in the presence of febuxostat at the indicated concentrations for 5 min. Data are expressed as the mean±SD. n=4. […]
Critical materials and resources used in this study were summarized in Supplementary Table S1. […] After the purification by a CsCl gradient ultracentrifugation method, the adenovirus titer was determined by using an. […]

Row | IC50 [1] | Compound | inhibition of ABCC11-mediated DHEAS transport (human ABCC11)
1 | – | Cc1nc(-c2ccc(OCC(C)C)c(C#N)c2)sc1C(=O)O [febuxostat] | Dose-dependent inhibition; also recorded: inhibited ABCC11
2 | 3.26 µM | Cc1nc(-c2ccc(OCC(C)C)c(C#N)c2)sc1C(=O)O [Febuxostat] | –
